# Data published in patent US8030498B2, “Benzoylpyrazole compounds and herbicides containing them” (Ishihara Sangyo Kaisha, Ltd., priority 2005, dated 2011).
# Columns and labels:
# redroot pigweed = assay: Test Example 2: soil application on the day after sowing, growth inhibition rate, redroot pigweed; assay type: in vivo, Amaranthus retroflexus L.; settings: 250 g/ha active ingredient, observed on 19th to 24th day
# Procedure, shortened: (§1)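 Pre-emergence soil treatment: one day post-sowing in upland soil, compound formulations at set active-ingredient rates were applied in 500 L/ha water. Visual rating of growth inhibition (0% untreated-equivalent to 100% complete kill) followed on days 19–24 after application.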
# [1] = system: prickly sida (Sida spinosa L.); assay: Test Example 1: foliar treatment, growth inhibition rate, prickly sida; assay type: in vivo; settings: 31 g/ha active ingredient, visually observed 17th to 23rd day after application
# Procedure, shortened: (§2)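 Visual scoring of growth inhibition, 0% (untreated) to 100% (complete kill), on days 17–23 following post-emergence spray of formulated compound in water (500 L/ha, 0.1 vol % spreader); plants treated at set leaf stages, e.g. corn 2.0–3.5, wheat 1.7–3.4.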
# barnyardgrass = assay: Test Example 2: soil application on the day after sowing, growth inhibition rate, barnyardgrass; assay type: in vivo, Echinochloa crus-galli L.; settings: 250 g/ha active ingredient, observed on 19th to 24th day
# Procedure, shortened: as §1
# [2] = system: crabgrass (Digitaria sanguinalis L.); assay: Test Example 1: foliar treatment, growth inhibition rate, crabgrass; assay type: in vivo; settings: 31 g/ha active ingredient, visually observed 17th to 23rd day after application
# Procedure, shortened: as §2
# rice = assay: Test Example 2: soil application on the day after sowing, growth inhibition rate, rice; assay type: in vivo, Oryza sativa L.; settings: 250 g/ha active ingredient, observed on 19th to 24th day
# Procedure, shortened: as §1
# velvetleaf = assay: Test Example 2: soil application on the day after sowing, growth inhibition rate, velvetleaf; assay type: in vivo, Abutilon theophrasti MEDIC.; settings: 250 g/ha active ingredient, observed on 19th to 24th day
# Procedure, shortened: as §1
# corn = assay: Test Example 2: soil application on the day after sowing, growth inhibition rate, corn; assay type: in vivo, Zea mays L.; settings: 250 g/ha active ingredient, observed on 19th to 24th day
# Procedure, shortened: as §1
# wheat (Triticum spp.) = assay: Test Example 1: foliar treatment, growth inhibition rate, wheat; assay type: in vivo; settings: 31 g/ha active ingredient, visually observed 17th to 23rd day after application
# Procedure, shortened: (§3)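 Seeds were sown in upland field soil in pots. At the target leaf stage (corn 2.0–3.5; greenfoxtail 1.0–3.0; rice 1.0–2.5; wheat 1.7–3.4), the formulated compound, diluted at a water volume of 500 L/ha with 0.1 vol % spreader, was applied by small sprayer. Plants were rated by eye on days 17–23.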
# prickly sida = assay: Test Example 2: soil application on the day after sowing, growth inhibition rate, prickly sida; assay type: in vivo, Sida spinosa L.; settings: 250 g/ha active ingredient, observed on 19th to 24th day
# Procedure, shortened: as §1
# [3] = system: greenfoxtail (Setaria viridis L.); assay: Test Example 1: foliar treatment, growth inhibition rate, greenfoxtail; assay type: in vivo; settings: 31 g/ha active ingredient, visually observed 17th to 23rd day after application
# Procedure, shortened: as §3
# crabgrass = assay: Test Example 2: soil application on the day after sowing, growth inhibition rate, crabgrass; assay type: in vivo, Digitaria sanguinalis L.; settings: 250 g/ha active ingredient, observed on 19th to 24th day
# Procedure, shortened: as §1
# rice (Oryza sativa L.) = assay: Test Example 1: foliar treatment, growth inhibition rate, rice; assay type: in vivo; settings: 31 g/ha active ingredient, visually observed 17th to 23rd day after application
# Procedure, shortened: as §3
# wheat = assay: Test Example 2: soil application on the day after sowing, growth inhibition rate, wheat; assay type: in vivo, Triticum spp.; settings: 250 g/ha active ingredient, observed on 19th to 24th day
# Procedure, shortened: as §1
# corn (Zea mays L.) = assay: Test Example 1: foliar treatment, growth inhibition rate, corn; assay type: in vivo; settings: 31 g/ha active ingredient, visually observed 17th to 23rd day after application
# Procedure, shortened: as §3
# [4] = system: velvetleaf (Abutilon theophrasti MEDIC.); assay: Test Example 1: foliar treatment, growth inhibition rate, velvetleaf; assay type: in vivo; settings: 31 g/ha active ingredient, visually observed 17th to 23rd day after application
# Procedure, shortened: as §2
# greenfoxtail = assay: Test Example 2: soil application on the day after sowing, growth inhibition rate, greenfoxtail; assay type: in vivo, Setaria viridis L.; settings: 250 g/ha active ingredient, observed on 19th to 24th day
# Procedure, shortened: as §1
# soybean = assay: Test Example 2: soil application on the day after sowing, growth inhibition rate, soybean; assay type: in vivo, Glycine max Merr.; settings: 250 g/ha active ingredient, observed on 19th to 24th day
# Procedure, shortened: as §1
# [5] = system: barnyardgrass (Echinochloa crus-galli L.); assay: Test Example 1: foliar treatment, growth inhibition rate, barnyardgrass; assay type: in vivo; settings: 31 g/ha active ingredient, visually observed 17th to 23rd day after application
# Procedure, shortened: as §2
# [6] = system: soybean (Glycine max Merr.); assay: Test Example 1: foliar treatment, growth inhibition rate, soybean; assay type: in vivo; settings: 31 g/ha active ingredient, visually observed 17th to 23rd day after application
# Procedure, shortened: as §2
# [7] = system: redroot pigweed (Amaranthus retroflexus L.); assay: Test Example 1: foliar treatment, growth inhibition rate, redroot pigweed; assay type: in vivo; settings: 31 g/ha active ingredient, visually observed 17th to 23rd day after application
# Procedure, shortened: as §2
SMILES,Growth inhibition rate (%) redroot pigweed (redroot pigweed),Growth inhibition rate (%) Prickly sida [1],Growth inhibition rate (%) Barnyardgrass (barnyardgrass),Growth inhibition rate (%) Crabgrass [2],Growth inhibition rate (%) Rice (rice),Growth inhibition rate (%) Velvetleaf (velvetleaf),Growth inhibition rate (%) Corn (corn),Growth inhibition rate (%) Wheat (wheat (Triticum spp.)),Growth inhibition rate (%) Prickly sida (prickly sida),Growth inhibition rate (%) Greenfoxtail [3],Growth inhibition rate (%) Crabgrass (crabgrass),Growth inhibition rate (%) Rice (rice (Oryza sativa L.)),Growth inhibition rate (%) Wheat (wheat),Growth inhibition rate (%) Corn (corn (Zea mays L.)),Growth inhibition rate (%) Velvetleaf [4],Growth inhibition rate (%) Greenfoxtail (greenfoxtail),Growth inhibition rate (%) Soybean (soybean),Growth inhibition rate (%) Barnyardgrass [5],Growth inhibition rate (%) Soybean [6],Growth inhibition rate (%) redroot pigweed [7]
CCOC(=O)c1c(S(C)(=O)=O)ccc(C(=O)c2cnn(CC)c2OC(=O)SCC)c1C [compound 61],100%,95%,100%,98%,85%,90%,0%,60%,80%,100%,100%,90%,30%,50%,95%,100%,20%,98%,80%,100%
CCCSC(=O)Oc1c(C(=O)c2ccc(S(C)(=O)=O)c(C(=O)OC)c2C)cnn1C [compound 84],100%,100%,98%,98%,98%,98%,30%,50%,98%,100%,100%,95%,0%,10%,95%,100%,50%,98%,95%,100%
CSC(=O)Oc1c(C(=O)c2ccc(S(C)(=O)=O)c(C3=NOCC3)c2C)cnn1C [compound 40],100%,70%,100%,80%,90%,90%,0%,0%,85%,95%,100%,70%,10%,10%,90%,100%,60%,95%,90%,90%
CCCSC(=O)Oc1c(C(=O)c2ccc(S(C)(=O)=O)c(OCCOC)c2C)cnn1C [compound 219],100%,70%,100%,100%,95%,100%,0%,0%,80%,100%,100%,80%,0%,0%,100%,100%,0%,100%,100%,100%
CCSC(=O)Oc1c(C(=O)c2ccc(S(C)(=O)=O)c(OCCSC)c2C)cnn1C [compound 81],0%,0%,0%,0%,0%,0%,0%,0%,0%,0%,0%,10%,0%,10%,0%,10%,0%,30%,50%,10%
CCSC(=O)Oc1c(C(=O)c2ccc(S(C)(=O)=O)c(C(=O)OC)c2Cl)cnn1CC [compound 95],100%,80%,100%,90%,98%,80%,0%,20%,95%,100%,95%,90%,0%,10%,90%,100%,0%,100%,95%,100%
CCSC(=O)Oc1c(C(=O)c2ccc(S(C)(=O)=O)c(COC3CCOC3)c2C)cnn1C (stereo not drawn) [compound 223],90%,70%,70%,100%,40%,80%,0%,0%,60%,90%,100%,70%,0%,0%,95%,70%,0%,100%,100%,90%
CCn1ncc(C(=O)c2ccc(S(C)(=O)=O)c(OCCOC)c2C)c1OC(=O)SC(C)C [compound 208],100%,40%,100%,100%,98%,50%,0%,0%,30%,100%,100%,80%,0%,0%,95%,100%,0%,95%,100%,100%
CCOC(=O)COc1c(S(C)(=O)=O)ccc(C(=O)c2cnn(C)c2OC(=O)SCC)c1C [compound 65],20%,30%,0%,10%,0%,0%,0%,0%,0%,10%,10%,0%,0%,0%,50%,10%,0%,20%,10%,30%
